Consider 29 compounds from US8716281B2, “Pyrimidine compounds that inhibit anaplastic lymphoma kinase” (Amgen Inc., priority 2010, dated 2014).

By pIC50 is commonly meant the IC50 on a negative log10 scale, so that one unit is a factor of ten.

pIC50: −log10 of the molar value. Where only a bound is given, the exact number is not on record here.

The first assay deals with T1, wild-type human ALK cytoplasmic domain (amino acids 1058-1620) (Homo sapiens, UniProt Q9UM73).
T1 construct: The cytoplasmic domain (amino acids 1058-1620) of wild-type human ALK; GST (N); made in house; host or cells: SF9 insect cells
T1 sequence (Q9UM73 1058-1620): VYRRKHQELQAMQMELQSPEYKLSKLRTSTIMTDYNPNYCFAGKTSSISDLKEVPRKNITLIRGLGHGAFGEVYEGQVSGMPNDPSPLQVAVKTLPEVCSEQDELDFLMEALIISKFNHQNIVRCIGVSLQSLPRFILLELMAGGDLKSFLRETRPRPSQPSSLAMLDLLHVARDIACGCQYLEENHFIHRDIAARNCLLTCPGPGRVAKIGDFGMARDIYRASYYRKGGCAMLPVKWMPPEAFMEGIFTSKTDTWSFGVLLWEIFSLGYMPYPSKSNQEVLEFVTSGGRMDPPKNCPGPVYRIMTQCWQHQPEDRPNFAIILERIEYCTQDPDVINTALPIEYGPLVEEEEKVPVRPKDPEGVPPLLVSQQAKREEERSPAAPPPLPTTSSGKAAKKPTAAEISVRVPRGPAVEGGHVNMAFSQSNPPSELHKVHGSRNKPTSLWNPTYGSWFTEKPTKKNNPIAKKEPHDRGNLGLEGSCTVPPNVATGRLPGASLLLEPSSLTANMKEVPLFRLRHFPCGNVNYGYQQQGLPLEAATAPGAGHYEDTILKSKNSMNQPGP
In words: ALK Inhibition in Enzyme Assay (Lance TR-FRET). The class given is biochemical.
Conditions: not given
The procedure: ALK Inhibition in Enzyme Assay
Kinase activity of the purified protein was assessed using a Lance® TR-FRET assay. […] The reaction was allowed to proceed for 90 minutes at room temperature and was then terminated with 20 mM EDTA in 50 mM Tris (pH 7.5), 100 mM NaCl, 0.05% BSA, and 0.1% Tween-20. Phosphorylation of the peptide substrate was detected using the Lance® detection reagents streptavidin-allophycocyanin (SA-APC) and Eu-W1024 anti-phosphotyrosine antibody (PT66) from Perkin Elmer Life Sciences (Waltham, Mass.). The plates were read on a RUBY star plate reader (BMG LABTECH, Cary, N.C.) with an excitation wavelength of 320 nm.
(In general: In TR-FRET formats the signal depends on donor and acceptor labels being close together.)
For the compound `COc1cc(Nc2nccc(N3CCC[C@H](C(=O)NCc4cccc(N5CCOCC5)c4)C3)n2)cc(OC)c1OC` [Example 85, (S)-N-(3-(4-morpholinyl)benzyl)-1-(2-((3,4,5-trimethoxyphenyl)amino)-4-pyrimidinyl)-3-piperidinecarboxamide], the pIC50 was more than 7.30.

Still in this assay, the particulars now being: 2 nM enzyme, ATP at 40 μM (Km apparent), 90 minutes, mean of three replicates; read-out: ALK IC50.
Take `COc1cc(Nc2nccc(N3CCC[C@H](C(=O)NCc4cccc(OC(F)F)c4)C3)n2)cc(OC)c1OC` [Example 79, (S)-N-(3-(difluoromethoxy)benzyl)-1-(2-((3,4,5-trimethoxyphenyl)amino)-4-pyrimidinyl)-3-piperidinecarboxamide]: the pIC50 was more than 7.30.

As to `COc1cc(Nc2nccc(N3CCC[C@H](C(=O)NCc4cc(C)cc(C)c4)C3)n2)cc(OC)c1OC` [Example 81, (S)-N-(3,5-dimethylbenzyl)-1-(2-((3,4,5-trimethoxyphenyl)amino)-4-pyrimidinyl)-3-piperidinecarboxamide], the negative logarithm of the IC50 (pIC50) was 5.00 to 5.30.

Take `COc1cc(Nc2nccc(N3CCC[C@H](C(=O)NCc4ccc(C)c(C)c4)C3)n2)cc(OC)c1OC` [Example 83, (S)-N-(3,4-dimethylbenzyl)-1-(2-((3,4,5-trimethoxyphenyl)amino)-4-pyrimidinyl)-3-piperidinecarboxamide]: the pIC50 was 6.00 to 7.00.

As for `COc1cc(Nc2nccc(N3CCC[C@H](C(=O)NCc4cccc(NS(C)(=O)=O)c4)C3)n2)cc(OC)c1OC` [Example 84, (S)-N-(3-((methylsulfonyl)amino)benzyl)-1-(2-((3,4,5-trimethoxyphenyl)amino)-4-pyrimidinyl)-3-piperidinecarboxamide], the pIC50 was 5.30 to 6.00.

For the compound `COc1cc(Nc2nccc(N3CCC[C@H](C(=O)NCc4ccc(C(F)(F)F)c(F)c4)C3)n2)cc(OC)c1OC` [Example 86, (S)-N-(3-fluoro-4-(tritluoromethyl)benzyl)-1-(2-((3,4,5-trimethoxyphenyl)amino)-4-pyrimidinyl)-3-piperidinecarboxamide], the pIC50 is 6.00 to 7.00.

`COc1cc(Nc2nccc(N3CCC[C@H](C(=O)NCc4cccc(OC(C)C)c4)C3)n2)cc(OC)c1OC` [Example 87, (S)-N-(3-(1-methylethoxy)benzyl)-1-(2-((3,4,5-trimethoxyphenyl)amino)-4-pyrimidinyl)-3-piperidinecarboxamide]: the pIC50 was 6.00 to 7.00.

On to `COc1cc(Nc2nccc(N3CCC[C@H](C(=O)NCc4ccc(OC(C)C)cc4)C3)n2)cc(OC)c1OC` [Example 88, (S)-N-(4-(1-methylethoxy)benzyl)-1-(2-((3,4,5-trimethoxyphenyl)amino)-4-pyrimidinyl)-3-piperidinecarboxamide], for which the pIC50 is 7.00 to 7.30.

`COc1cc(Nc2nccc(N3CCC[C@H](C(=O)NCCc4cccc(C)c4)C3)n2)cc(OC)c1OC` [Example 89, (S)-N-(2-(3-methylphenyl)ethyl)-1-(2-((3,4,5-trimethoxyphenyl)amino)-4-pyrimidinyl)-3-piperidinecarboxamide]: the negative logarithm of the IC50 (pIC50) was 7.00 to 7.30.

As to `COc1cc(Nc2nccc(N3CCC[C@H](C(=O)NCCc4ccc(Oc5ccccc5)cc4)C3)n2)cc(OC)c1OC` [Example 90, (S)-N-(2-(4-phenoxyphenyl)ethyl)-1-(2-((3,4,5-trimethoxyphenyl)amino)-4-pyrimidinyl)-3-piperidinecarboxamide], the pIC50 was 6.00 to 7.00.

For `COc1cc(Nc2nccc(N3CCC[C@H](C(=O)NCCc4ccc(C(F)(F)F)cc4)C3)n2)cc(OC)c1OC` [Example 91, (S)-N-(2-(4-(trifluoromethyl)phenyl)ethyl)-1-(2-((3,4,5-trimethoxyphenyl)amino)-4-pyrimidinyl)-3-piperidinecarboxamide], the pIC50 was 7.00 to 7.30.

`COc1cc(Nc2nccc(N3CCC[C@H](C(=O)NCCc4ccc(C)cc4)C3)n2)cc(OC)c1OC` [Example 92, (S)-N-(2-(4-methylphenyl)ethyl)-1-(2-((3,4,5-trimethoxyphenyl)amino)-4-pyrimidinyl)-3-piperidinecarboxamide]: the pIC50 is 6.00 to 7.00.

Regarding `COc1ccc(CCNC(=O)[C@H]2CCCN(c3ccnc(Nc4cc(OC)c(OC)c(OC)c4)n3)C2)cc1` [Example 93, (S)-N-(2-(4-methoxyphenyl)ethyl)-1-(2-((3,4,5-trimethoxyphenyl)amino)-4-pyrimidinyl)-3-piperidinecarboxamide], the pIC50 is 6.00 to 7.00.

Turning to `COc1cc(Nc2nccc(N3CCC[C@H](C(=O)NCCc4cccc(Br)c4)C3)n2)cc(OC)c1OC` [Example 94, (S)-N-(2-(3-bromophenyl)ethyl)-1-(2-((3,4,5-trimethoxyphenyl)amino)-4-pyrimidinyl)-3-piperidinecarboxamide], the pIC50 is more than 7.30.

`COc1cc(Nc2nccc(N3CCC[C@H](C(=O)NCCc4cccc(F)c4)C3)n2)cc(OC)c1OC` [Example 95, (S)-N-(2-(3-fluorophenyl)ethyl)-1-(2-((3,4,5-trimethoxyphenyl)amino)-4-pyrimidinyl)-3-piperidinecarboxamide]: the pIC50 was 6.00 to 7.00.

For the compound `COc1cc(Nc2nccc(N3CCC[C@H](C(=O)NCCc4cccc(C(F)(F)F)c4)C3)n2)cc(OC)c1OC` [Example 96, (S)-N-(2-(3-(trifluoromethyl)phenyl)ethyl)-1-(2-((3,4,5-trimethoxyphenyl)amino)-4-pyrimidinyl)-3-piperidinecarboxamide], the pIC50 is more than 7.30.

Turning to `COc1cc(Nc2nccc(N3CCC[C@H](C(=O)NCCc4ccc(C)c(C)c4)C3)n2)cc(OC)c1OC` [Example 97, (S)-N-(2-(3,4-dimethylphenyl)ethyl)-1-(2-((3,4,5-trimethoxyphenyl)amino)-4-pyrimidinyl)-3-piperidinecarboxamide], the pIC50 is 5.30 to 6.00.

As for `COc1cc(Nc2nccc(N3CCC[C@H](C(=O)NC[C@@H](C)c4ccccc4)C3)n2)cc(OC)c1OC` [Example 98, (S)-N-((S)-2-phenylpropyl)-1-(2-((3,4,5-trimethoxyphenyl)amino)-4-pyrimidinyl)-3-piperidinecarboxamide], the pIC50 is 6.00 to 7.00.

Take `COc1cc(Nc2nccc(N3CCC[C@H](C(=O)NCCc4ccccc4Cl)C3)n2)cc(OC)c1OC` [Example 99, (S)-N-(2-(2-chlorophenyl)ethyl)-1-(2-((3,4,5-trimethoxyphenyl)amino)-4-pyrimidinyl)-3-piperidinecarboxamide]: the pIC50 is 5.30 to 6.00.

As for `COc1cc(Nc2nccc(N3CCC[C@H](C(=O)NCCc4ccc(F)cc4)C3)n2)cc(OC)c1OC` [Example 100, (S)-N-(2-(4-fluorophenyl)ethyl)-1-(2-((3,4,5-trimethoxyphenyl)amino)-4-pyrimidinyl)-3-piperidinecarboxamide], the pIC50 was 6.00 to 7.00.

Regarding `COc1cc(Nc2nccc(N3CCC[C@H](C(=O)NC[C@H](C)c4ccccc4)C3)n2)cc(OC)c1OC` [Example 101, (S)-N-((R)-2-phenylpropyl)-1-(2-((3,4,5-trimethoxyphenyl)amino)-4-pyrimidinyl)-3-piperidinecarboxamide], the pIC50 was 5.30 to 6.00.

On to `COc1cc(Nc2nccc(N3CCC[C@H](C(=O)NCCc4ccccc4F)C3)n2)cc(OC)c1OC` [Example 102, (S)-N-(2-(2-fluorophenyl)ethyl)-1-(2-((3,4,5-trimethoxyphenyl)amino)-4-pyrimidinyl)-3-piperidinecarboxamide], for which the pIC50 is 6.00 to 7.00.

With `COc1cc(Nc2nccc(N3CCC[C@H](C(=O)NCc4cccc(F)c4)C3)n2)cc(OC)c1OC` [Example 104, (S)-N-(3-fluorobenzyl)-1-(2-((3,4,5-trimethoxyphenyl)amino)-4-pyrimidinyl)-3-piperidinecarboxamide], the pIC50 was 6.00 to 7.00.

Regarding `COc1cc(Nc2nccc(N3CCC[C@H](C(=O)NCc4cccc(Oc5ccc(Cl)cc5)c4)C3)n2)cc(OC)c1OC` [Example 105, (S)-N-(3-(4-chlorophenoxy)benzyl)-1-(2-((3,4,5-trimethoxyphenyl)amino)-4-pyrimidinyl)-3-piperidinecarboxamide], the pIC50 was 5.30 to 6.00.

As to `COc1cc(Nc2nccc(N3CCC[C@H](C(=O)NCc4cccc(-c5ccc(Cl)cc5)c4)C3)n2)cc(OC)c1OC` [Example 106, (S)-N-((4′-chloro-3-biphenylyl)methyl)-1-(2-((3,4,5-trimethoxyphenyl)amino)-4-pyrimidinyl)-3-piperidinecarboxamide], the pIC50 is more than 7.30.

`COc1cc(Nc2nccc(N3CCC[C@H](C(=O)NCc4cccc(-c5ccc(F)cc5)c4)C3)n2)cc(OC)c1OC` [Example 108, (S)-N-((4′-fluoro-3-biphenylyl)methyl)-1-(2-((3,4,5-trimethoxyphenyl)amino)-4-pyrimidinyl)-3-piperidinecarboxamide]: the pIC50 was more than 7.30.

Turning to `CCOC(=O)C(C)Cc1cccc(CNC(=O)[C@H]2CCCN(c3ccnc(Nc4cc(OC)c(OC)c(OC)c4)n3)C2)c1` (stereo partly drawn) [Example 109, ethyl 2-methyl-3-(3-(((((S)-1-(2-((3,4,5-trimethoxyphenyl)amino)-4-pyrimidinyl)-3-piperidinyl)carbonyl)amino)methyl)phenyl)propanoate], the pIC50 is 6.00 to 7.00.

On to `COc1cc(Nc2nccc(N3CCC[C@H](C(=O)NCc4cccc(-n5cccc5)c4)C3)n2)cc(OC)c1OC` [Example 110, (S)-N-(3-(1H-pyrrol-1-yl)benzyl)-1-(2-((3,4,5-trimethoxyphenyl)amino)-4-pyrimidinyl)-3-piperidinecarboxamide], for which the pIC50 is more than 7.30.

For the compound `COc1cc(Nc2nccc(N3CCC[C@H](C(=O)NCc4cccc(-n5cccn5)c4)C3)n2)cc(OC)c1OC` [Example 111, (S)-N-(3-(1H-pyrazol-1-yl)benzyl)-1-(2-((3,4,5-trimethoxyphenyl)amino)-4-pyrimidinyl)-3-piperidinecarboxamide], the pIC50 is 6.00 to 7.00.
